According to patent US5773005A, “Purified flavonoid and diterpene 5α-reductase inhibitors from thuja orientalis for androgen-related diseases” (priority 1995, dated 1998):

Key:
[1] = tested on: male pattern baldness in stage V; assay: Therapeutic effect on male pattern baldness in stage V, scored (Example 10); assay type: in vivo, human; parameters: key: 10: alopecic area decreased to 1/5 or less and hair density increased by 2/3 or more; 7: alopecic area decreased to 1/3 or less and hair density increased by 1/3 or more; 4: alopecic area decreased to 1/2 or less and hair density increased by 1/5 or more; alopecic area decreased by 20% and hair density increased by 10% or more; 1: alopecic area hardly changed but hair density increased definitely; 0: no change at all; conditions: formula with 1% diterpene, twice a day; for Score, 0 mo.: 0 months; for Score, 1 mo.: 1 month; for Score, 2 mo.: 2 months; for Score, 4 mo.: 4 months; for Score, 6 mo.: 6 months
Description: Diterpenes of the invention were evaluated for their therapeutic effects on male pattern baldness in stage V. The curatives were prepared in accordance with the formula set forth in Table 11. | Ethanol 50% | Propylene glycol | 10% | HCO-60 3% | Diterpene 1% | Purified water | 36% The curatives were applied to the bald area of male volunteers (aged 27-45) in five groups each consisting of 5 cases. The application was done daily on a twice-a-day basis and continued for 6 months. The therapeutic efficacy was evaluated by the following criteria based on the decrease in the area of the parietal alopecic lesion and the density of regrowing hairs: 10 (alopecic area decreased to 1/5 or less and hair density increased by 2/3 or more); 7 (alopecic area decreased to 1/3 or less and hair density increased by 1/3 or more); 4 (alopecic area decreased to 1/2 or less and hair density increased by 1/5 or more); 2 (alopecic area decreased by 20% and hair density increased by 10% or more); 1 (alopecic area hardly changed but hair density increased definitely); 0 (no change at all).

acne patients = assay: Treatment of acne patients with diterpene lotion, scored (Example 9); assay type: in vivo, human; conditions: lotion with 1% diterpene, twice a day, group score of 6 patients (3 cured completely, 2 half cured, 1 cured 30%, 0 not cured), highest 18; for Score, 1 mo.: 1 month; for Score, 2 mo.: 2 months
Description: Patients in their twenties who were suffering from acne were divided into five groups each consisting of 3 males and 3 females and treated with a lotion of the following formula prepared in accordance with the invention. |Ethanol 50% |1,3-Butylene glycol | 20% |HCO-60 3% |Diterpene 1% |Purified water 26% The lotion was applied to the diseased part of a patient's face after washing with takallophene soap and the treatment was conducted daily on a twice-a-day basis for a period of 2 months. The acne in each patient was diagnosed as being moderate and a mixture of comedones (primarily whiteheads), papules and pustules. The results were evaluated by the following criteria: 3, cured completely; 2, half cured; 1, cured 30%; 0, not cured. The highest score was 18 and the lowest score was 0.

[2] = tested on: androgen-dependent rat prostatic cancer strain R3327-G; assay: Growth control of androgen-dependent rat prostatic cancer strain R3327-G in nude mice (Example 15); assay type: in vivo, rat (transplanted in BALB/CA-nu/nu mice); conditions: castrated mice given 25 mg testosterone enanthat per head; peroral, once a day, 28 days
Description: (§1) Seven-week old BALB/CA-nu/nu mice were transplanted with androgen-dependenthuman prostatic cancer strain HONDA beneath the dorsal skin and 6-week old BALB/CA-nu/nu mice were transplanted with androgen-dependent rat prostatic cancer strain R3327-G beneath the dorsal skin. When the respective tumors grew to a specified size, the animals were divided into test and control groups. The test groups were administered with suspensions of trans-communic acid and flutamide in 0.5% CMC. The control groups were administered with 0.5% CMC alone. The drugs and the vehicle were administered perorally via an oral probe. The administration was repeated daily for 28 consecutive days on a once-a-day basis. The tumor volume (mm^3) was calculated by the formula of major axis (mm) × the square of minor axis (mm^2)/2.
The growth of cancer strain R3327-G was not controlled in castrated mice when they were administered 25 mg of testosterone enanthat per head concurrently with the cancer transplantation.

[3] = tested on: androgen-dependent human prostatic cancer strain HONDA; assay: Growth control of androgen-dependent human prostatic cancer strain HONDA in nude mice (Example 15); assay type: in vivo, human (transplanted in BALB/CA-nu/nu mice); conditions: once a day, 28 days; for control of tumor growth (HONDA): peroral in 0.5% CMC
Description: as §1, with “R3327-G” left out

[4] = tested on: women suffering from idiopathic hirtuism; assay: Women suffering from idiopathic hirsutism, depilated right forearm (Example 14); assay type: in vivo, human; conditions: 0.1% in 50% ethanol, twice a day
Description: Five women (aged 20-35) suffering from idiopathic hirtuism were treated with 0.1% trans-communic acid in 50% ethanol that was applied daily to a wax depilated area of the right forearm on a twice-a-day basis. Depilation was repeated every other month until the end of the experiment.
Measurements were conducted on the hairs attached to the cloth used for wax depilation.

hirsute male volunteers = assay: Hair regrowth on wax-depilated legs of hirsute male volunteers (Example 13); assay type: in vivo, human; conditions: 0.1% in 50% ethanol, twice a day, 3 months, control section indistinguishable from surrounding area
Description: An experiment was conducted on 5 hirsute male volunteers aged 25-48. The center of each straight leg was depilated with wax to create a lesion about 2 cm wide and 3 cm long. […] The application was done daily on a twice-a-day basis for 3 consecutive months.

[5] = tested on: male pattern baldness in stage V; assay: Efficacy against male pattern baldness in stage V, male volunteers (Example 4); assay type: in vivo, human; conditions: 1% in 50% alcohol, twice a day, 4 months
Description: The 5α-reductase inhibitors extracted from Thuja orientalis were examined for their efficacy against male pattern baldness in stage V. The test samples were components A, B and C, as well as the terpenoid isolated from component A and the (iso)scutellarein isolated from component B, which were each dissolved at a concentration of 1% in 50% alcohol. These samples were daily applied on a twice-a-day basis for a period of 4 months to the bald heads of 27-45 year old male volunteers in five groups each consisting of 5 cases.

male hirsute volunteers = assay: Suppression of hair regrowth in male hirsute volunteers, wax-depilated inferior limbs (Example 5); assay type: in vivo, human; conditions: 1% in 50% alcohol

C=C/C(C)=C/CC1C(=C)CCC2C(C)(CO)CCCC12C (stereo not drawn) [Sample III, (E)8(17),12,14-labdatrien-19-ol]
Score, 0 mo. [1]: 0 | Score, 1 mo. [1]: 0 | Score, 2 mo. [1]: 4 | Score, 4 mo. [1]: 7 | Score, 6 mo. [1]: 10 | Score, 1 mo. (acne patients): 9 | Score, 2 mo. (acne patients): 18

C=C/C(C)=C/CC1C(=C)CCC2C(C)(C(=O)O)CCCC12C (stereo not drawn) [Sample I, (E)8(17),12,14-labdatrien-19-oic acid]
control of tumor growth (R3327-G) [2]: could effectively control the growth of cancer in a dose-dependent manner | efficacy relative to flutamide (R3327-G) [2]: considerably stronger than that of flutamide | Score, 0 mo. [1]: 0 | Score, 1 mo. [1]: 1 | Score, 2 mo. [1]: 4 | Score, 4 mo. [1]: 7 | Score, 6 mo. [1]: 10 | control of tumor growth (HONDA) [3]: could control the growth of this cancer significantly in a dose-dependent manner | tumor size at 20 mg/kg vs flutamide 200 mg/kg (HONDA) ([3]; trans-communic acid 20 mg/kg, peroral): almost comparable to that of the group administered with 200 mg/kg of flutamide | Hair length (peaked at), sixth measurement, case A ([4]; case A, before treatment: peaked at ca. 10 mm): ca. 10 mm | Hair density, sixth measurement, case A ([4]; case A, before treatment: thick): sparse | Hair length, sixth measurement, case B ([4]; case B, before treatment: peaked at ca. 6 mm): ca. 1 mm | Hair density, sixth measurement, case B ([4]; case B, before treatment: thick): a few | Hair length, sixth measurement, case D ([4]; case D, before treatment: peaked at ca. 8 mm): ca. 2 mm | Hair density, sixth measurement, case D ([4]; case D, before treatment: thick): a few | Score, 1 mo. (acne patients): 8 | Score, 2 mo. (acne patients): 18 | Regrowth of hair, test section, case A (hirsute male volunteers; case A): No regrowth of hair | Regrowth of hair, test section, case B (hirsute male volunteers; case B): No regrowth of hair | Regrowth of hair, test section, case C (hirsute male volunteers; case C): Regrowth of a few hair | Regrowth of hair, test section, case D (hirsute male volunteers; case D): No regrowth of hair | Regrowth of hair, test section, case E (hirsute male volunteers; case E): No regrowth of hair

C=C/C(C)=C/CC1C(=C)CCC2C(C)(C)CCCC12C (stereo not drawn) [Sample II, (E)8(17),12,14-labdatriene]
Score, 0 mo. [1]: 0 | Score, 1 mo. [1]: 1 | Score, 2 mo. [1]: 4 | Score, 4 mo. [1]: 7 | Score, 6 mo. [1]: 10 | Score, 1 mo. (acne patients): 10 | Score, 2 mo. (acne patients): 18

(iso)scutellarein
regrowth of hair [5]: pronounced regrowth of hair | regrowth of hair as compared to the control section (male hirsute volunteers; topical, control 50% alcohol alone): significantly suppressed | regrowth of hair in the test sections when the experiment ended (male hirsute volunteers; 3 months): barely recognizable

CC(C)C(=O)Nc1ccc([N+](=O)[O-])c(C(F)(F)F)c1 [Flutamide, reference compound]
Score, 0 mo. [1]: 0 | Score, 1 mo. [1]: 1 | Score, 2 mo. [1]: 2 | Score, 4 mo. [1]: 2 | Score, 6 mo. [1]: 4 | control of tumor growth (HONDA) [3]: effective in tumor control | efficacy of flutamide relative to trans-communic acid (HONDA) ([3]; peroral): considerably weaker than that of trans-communic acid | Score, 1 mo. (acne patients): 4 | Score, 2 mo. (acne patients): 8
